{"source": "paper PMC10410761", "about": "(Proceedings of the National Academy of Sciences of the …, 2023)", "key": {"[1]": {"system": "NaV1.7", "experiment": "Whole-cell voltage clamp, sodium currents in rat DRG neurons", "format": "cell-based", "conditions": "Pitstop2 20 µM, 30 min before recording, rat DRG neurons"}, "[2]": {"target": "NaV1.7 (Rattus norvegicus, UniProt O08562)", "sequence (O08562 whole entry)": "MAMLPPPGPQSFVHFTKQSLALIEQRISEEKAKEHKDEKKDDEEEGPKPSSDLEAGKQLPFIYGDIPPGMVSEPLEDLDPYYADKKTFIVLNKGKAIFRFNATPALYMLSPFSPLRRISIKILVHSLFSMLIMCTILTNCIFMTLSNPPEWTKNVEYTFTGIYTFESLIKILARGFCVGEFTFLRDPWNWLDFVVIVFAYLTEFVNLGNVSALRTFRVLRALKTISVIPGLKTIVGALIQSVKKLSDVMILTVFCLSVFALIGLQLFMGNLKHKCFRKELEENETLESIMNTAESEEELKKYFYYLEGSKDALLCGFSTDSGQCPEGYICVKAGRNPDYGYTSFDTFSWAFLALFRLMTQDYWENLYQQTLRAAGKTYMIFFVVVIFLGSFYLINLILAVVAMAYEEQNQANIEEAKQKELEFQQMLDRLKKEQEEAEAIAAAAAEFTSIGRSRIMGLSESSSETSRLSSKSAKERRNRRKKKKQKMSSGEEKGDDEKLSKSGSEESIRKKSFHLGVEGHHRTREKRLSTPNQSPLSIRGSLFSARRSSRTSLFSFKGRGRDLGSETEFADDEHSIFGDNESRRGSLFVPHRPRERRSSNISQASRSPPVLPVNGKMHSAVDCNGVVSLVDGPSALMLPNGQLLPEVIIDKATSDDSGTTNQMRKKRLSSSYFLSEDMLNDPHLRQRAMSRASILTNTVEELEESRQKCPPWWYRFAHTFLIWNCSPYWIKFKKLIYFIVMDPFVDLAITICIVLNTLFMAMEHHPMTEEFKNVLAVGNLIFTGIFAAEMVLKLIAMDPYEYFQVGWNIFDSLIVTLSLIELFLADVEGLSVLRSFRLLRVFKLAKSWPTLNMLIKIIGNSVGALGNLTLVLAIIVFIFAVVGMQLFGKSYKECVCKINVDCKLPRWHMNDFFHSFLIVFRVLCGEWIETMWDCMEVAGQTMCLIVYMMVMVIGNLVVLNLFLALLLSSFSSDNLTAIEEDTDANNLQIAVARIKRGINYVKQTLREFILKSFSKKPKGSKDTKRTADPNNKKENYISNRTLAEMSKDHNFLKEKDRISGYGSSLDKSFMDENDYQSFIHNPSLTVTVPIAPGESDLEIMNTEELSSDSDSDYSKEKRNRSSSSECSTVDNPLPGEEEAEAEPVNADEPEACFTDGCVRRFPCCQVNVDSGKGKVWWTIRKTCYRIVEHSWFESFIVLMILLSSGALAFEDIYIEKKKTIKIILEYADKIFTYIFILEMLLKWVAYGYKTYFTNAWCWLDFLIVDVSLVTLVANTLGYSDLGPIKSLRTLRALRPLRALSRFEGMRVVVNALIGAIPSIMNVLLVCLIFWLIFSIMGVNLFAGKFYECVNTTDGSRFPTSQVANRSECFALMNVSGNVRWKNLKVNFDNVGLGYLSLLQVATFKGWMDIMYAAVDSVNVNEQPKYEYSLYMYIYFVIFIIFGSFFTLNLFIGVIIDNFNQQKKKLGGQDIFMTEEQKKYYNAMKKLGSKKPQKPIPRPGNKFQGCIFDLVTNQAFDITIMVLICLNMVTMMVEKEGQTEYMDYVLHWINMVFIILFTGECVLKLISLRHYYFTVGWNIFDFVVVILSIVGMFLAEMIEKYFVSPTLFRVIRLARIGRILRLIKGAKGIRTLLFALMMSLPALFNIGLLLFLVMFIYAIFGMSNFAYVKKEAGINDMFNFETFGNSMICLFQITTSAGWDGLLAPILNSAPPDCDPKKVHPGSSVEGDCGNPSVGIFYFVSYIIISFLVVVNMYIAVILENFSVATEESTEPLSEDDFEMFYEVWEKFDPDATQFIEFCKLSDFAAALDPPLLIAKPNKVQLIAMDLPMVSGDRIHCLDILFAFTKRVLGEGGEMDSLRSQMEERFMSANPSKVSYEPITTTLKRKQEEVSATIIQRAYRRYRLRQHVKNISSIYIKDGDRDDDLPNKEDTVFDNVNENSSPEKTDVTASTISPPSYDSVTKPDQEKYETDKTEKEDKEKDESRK", "experiment": "Whole-cell voltage clamp, sodium currents in rat DRG neurons", "format": "cell-based", "conditions": "Pitstop2 20 µM, vs AAV-SCR control"}}, "data": [{"smiles": "O=C1NC(=NS(=O)(=O)c2cccc3ccccc23)S/C1=C\\c1ccc(Br)cc1", "note": "[Pitstop2]", "values": [{"measurement": "Decrease of sodium currents imposed by Myr-TAT-NaV1.7-CRS", "setting": "[1]", "result": "rescued"}, {"measurement": "Inhibition of NaV1.7 current in AAV-NaV1.7-CRS transfected DRG neurons", "setting": "[2]", "result": "rescued"}]}]}
